# Reference: PubChem BioAssay AID1845212 (Molecular Pharmacology Branch, DTP, NCI, 2023)
# System: NCI-H719 tumor spheroids, viability
# Assay: Anticancer human tumor NCI-H719 cell line growth inhibition;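 note: spheroids exposed to compounds for seven days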;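 for viability, T/C: percent viability relative to DMSO vehicle control as 100%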
# Conditions: spheroids with HUVEC and MSC; for IC50: curve of first compound; for viability, T/C: stronger effect = lower value
# In short: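 Single agents and combinations were tested on spheroids built from tumor cells plus HUVEC and hMSC, at half-log dilutions starting at or near clinical Cmax, else 10 microM; final DMSO 0.25% (v/v).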
# [1] = second compound 30 pM, first compound 0.0316 µM
# [2] = second compound 30 pM, first compound 0.1 µM
# [3] = second compound 30 pM, first compound 0.316 µM
# [4] = second compound 30 pM, first compound 1 µM
# [5] = second compound 30 pM, first compound 3.16 µM
# [6] = second compound 30 pM, first compound 10 µM
# [7] = second compound 94.9 pM, first compound 0.0316 µM
# [8] = second compound 94.9 pM, first compound 0.1 µM
# [9] = second compound 94.9 pM, first compound 0.316 µM
# [10] = second compound 94.9 pM, first compound 1 µM
# [11] = second compound 94.9 pM, first compound 3.16 µM
# [12] = second compound 94.9 pM, first compound 10 µM
# [13] = second compound 0.0003 µM, first compound 0.0316 µM
# [14] = second compound 0.0003 µM, first compound 0.1 µM
# [15] = second compound 0.0003 µM, first compound 0.316 µM
# [16] = second compound 0.0003 µM, first compound 1 µM
# [17] = second compound 0.0003 µM, first compound 3.16 µM
# [18] = second compound 0.0003 µM, first compound 10 µM
# [19] = second compound 0.000949 µM, first compound 0.0316 µM
# [20] = second compound 0.000949 µM, first compound 0.1 µM
# [21] = second compound 0.000949 µM, first compound 0.316 µM
# [22] = second compound 0.000949 µM, first compound 1 µM
# [23] = second compound 0.000949 µM, first compound 3.16 µM
# [24] = second compound 0.000949 µM, first compound 10 µM
# [25] = second compound 0.003 µM, first compound 0.0316 µM
# [26] = second compound 0.003 µM, first compound 0.1 µM
# [27] = second compound 0.003 µM, first compound 0.316 µM
# [28] = second compound 0.003 µM, first compound 1 µM
# [29] = second compound 0.003 µM, first compound 3.16 µM
# [30] = second compound 0.003 µM, first compound 10 µM
compound,measurement,setting,value
CC(C)n1c(=O)n(C)c2cnc3cc(F)c(-c4ccc(OCCCN5CCCCC5)nc4)cc3c21 + COc1cc2c(cc1O)CCNC21CSC2c3c(OC(C)=O)c(C)c4c(c3C(COC1=O)N1C(O)C3Cc5cc(C)c(OC)c(O)c5C(C21)N3C)OCO4,IC50,second compound 30 pM,> 10000 nM
same,IC50,second compound 94.9 pM,< 31.6 nM
same,IC50,second compound 0.0003 µM,< 31.6 nM
same,IC50,second compound 0.000949 µM,< 31.6 nM
same,IC50,second compound 0.003 µM,< 31.6 nM
same,"viability, T/C",[1],90.9%
same,"viability, T/C",[2],86.2%
same,"viability, T/C",[3],85.7%
same,"viability, T/C",[4],71.2%
same,"viability, T/C",[5],74.3%
same,"viability, T/C",[6],98.8%
same,"viability, T/C",[7],40.8%
same,"viability, T/C",[8],60.5%
same,"viability, T/C",[9],45.5%
same,"viability, T/C",[10],47.9%
same,"viability, T/C",[11],36.5%
same,"viability, T/C",[12],43.7%
same,"viability, T/C",[13],30.1%
same,"viability, T/C",[14],5.76%
same,"viability, T/C",[15],27.8%
same,"viability, T/C",[16],8.34%
same,"viability, T/C",[17],8.82%
same,"viability, T/C",[18],5.34%
same,"viability, T/C",[19],6.42%
same,"viability, T/C",[20],7.84%
same,"viability, T/C",[21],6.99%
same,"viability, T/C",[22],6.68%
same,"viability, T/C",[23],5.62%
same,"viability, T/C",[24],4.34%
same,"viability, T/C",[25],0.61%
same,"viability, T/C",[26],1.06%
same,"viability, T/C",[27],0.76%
same,"viability, T/C",[28],0.52%
same,"viability, T/C",[29],0.99%
same,"viability, T/C",[30],0.68%
COc1ccc([C@@H](O)c2cc(-c3ncnc4cc(N5CCOCC5)ccc34)c(F)cc2Cl)nn1 + COc1cc2c(cc1O)CCNC21CSC2c3c(OC(C)=O)c(C)c4c(c3C(COC1=O)N1C(O)C3Cc5cc(C)c(OC)c(O)c5C(C21)N3C)OCO4,IC50,second compound 30 pM,1110 nM
same,IC50,second compound 94.9 pM,< 31.6 nM
same,IC50,second compound 0.0003 µM,< 31.6 nM
same,IC50,second compound 0.000949 µM,< 31.6 nM
same,IC50,second compound 0.003 µM,< 31.6 nM
same,"viability, T/C",[1],81.5%
same,"viability, T/C",[2],100%
same,"viability, T/C",[3],75.2%
same,"viability, T/C",[4],52.4%
same,"viability, T/C",[5],22%
same,"viability, T/C",[6],3.59%
same,"viability, T/C",[7],49.7%
same,"viability, T/C",[8],25.2%
same,"viability, T/C",[9],44%
same,"viability, T/C",[10],27.7%
same,"viability, T/C",[11],8.27%
same,"viability, T/C",[12],3%
same,"viability, T/C",[13],13.6%
same,"viability, T/C",[14],8.22%
same,"viability, T/C",[15],10.1%
same,"viability, T/C",[16],6.05%
same,"viability, T/C",[17],3.35%
same,"viability, T/C",[18],1.11%
same,"viability, T/C",[19],8.53%
same,"viability, T/C",[20],8.3%
same,"viability, T/C",[21],7.46%
same,"viability, T/C",[22],4.41%
same,"viability, T/C",[23],1.46%
same,"viability, T/C",[24],0.7%
same,"viability, T/C",[25],0.57%
same,"viability, T/C",[26],0.58%
same,"viability, T/C",[27],0.46%
same,"viability, T/C",[28],0.68%
same,"viability, T/C",[29],0.54%
same,"viability, T/C",[30],0.45%
O=C(c1cc(Cc2n[nH]c(=O)c3ccccc23)ccc1F)N1CCN(C(=O)C2CC2)CC1 + Cn1nnc2c(C(N)=O)ncn2c1=O,IC50,second compound 1 µM,1720 nM
same,IC50,second compound 3.16 µM,1360 nM
same,IC50,second compound 10 µM,1950 nM
same,IC50,second compound 31.6 µM,< 94.9 nM
same,IC50,second compound 100 µM,< 94.9 nM
same,"viability, T/C","second compound 1 µM, first compound 0.0949 µM",73.7%
same,"viability, T/C","second compound 1 µM, first compound 0.3 µM",56%
same,"viability, T/C","second compound 1 µM, first compound 0.949 µM",56.1%
same,"viability, T/C","second compound 1 µM, first compound 3 µM",42.1%
same,"viability, T/C","second compound 1 µM, first compound 9.49 µM",7.25%
same,"viability, T/C","second compound 1 µM, first compound 30 µM",6.89%
same,"viability, T/C","second compound 3.16 µM, first compound 0.0949 µM",64.2%
same,"viability, T/C","second compound 3.16 µM, first compound 0.3 µM",60.5%
same,"viability, T/C","second compound 3.16 µM, first compound 0.949 µM",67%
same,"viability, T/C","second compound 3.16 µM, first compound 3 µM",19.5%
same,"viability, T/C","second compound 3.16 µM, first compound 9.49 µM",20.2%
same,"viability, T/C","second compound 3.16 µM, first compound 30 µM",7.9%
same,"viability, T/C","second compound 10 µM, first compound 0.0949 µM",55.8%
same,"viability, T/C","second compound 10 µM, first compound 0.3 µM",66.7%
same,"viability, T/C","second compound 10 µM, first compound 0.949 µM",56%
same,"viability, T/C","second compound 10 µM, first compound 3 µM",43.9%
same,"viability, T/C","second compound 10 µM, first compound 9.49 µM",29.8%
same,"viability, T/C","second compound 10 µM, first compound 30 µM",7.79%
same,"viability, T/C","second compound 31.6 µM, first compound 0.0949 µM",52.4%
same,"viability, T/C","second compound 31.6 µM, first compound 0.3 µM",53.3%
same,"viability, T/C","second compound 31.6 µM, first compound 0.949 µM",34.1%
same,"viability, T/C","second compound 31.6 µM, first compound 3 µM",40.7%
same,"viability, T/C","second compound 31.6 µM, first compound 9.49 µM",42.8%
same,"viability, T/C","second compound 31.6 µM, first compound 30 µM",6.8%
same,"viability, T/C","second compound 100 µM, first compound 0.0949 µM",43.5%
same,"viability, T/C","second compound 100 µM, first compound 0.3 µM",21.9%
same,"viability, T/C","second compound 100 µM, first compound 0.949 µM",29.4%
same,"viability, T/C","second compound 100 µM, first compound 3 µM",51.8%
same,"viability, T/C","second compound 100 µM, first compound 9.49 µM",7.29%
same,"viability, T/C","second compound 100 µM, first compound 30 µM",7.19%
